{"source": "ChEMBL document CHEMBL2203067", "about": "“Peptide-chlorambucil conjugates combat pgp-dependent drug efflux” (ACS Med Chem Lett, 2011)", "key": {"A2780 [1]": {"system": "A2780", "test": "Inhibition of Pgp-mediated drug efflux in adriamycin-resistant human A2780 cells assessed as increase in intracellular adriamycin level at 5 uM after 40 mins by flow cytometry analysis", "assay_type": "cell-based"}, "A2780 [2]": {"system": "A2780", "test": "Cellular uptake in adriamycin-resistant human A2780 cells at 20 uM after 5 mins by confocal microscopic analysis", "assay_type": "ADME, cell-based", "conditions": "a2780, 5 min"}, "[3]": {"test": "Cellular uptake in adriamycin-resistant human A2780 cells plasma membrane at 5 uM after 5 mins by confocal microscopic analysis", "assay_type": "ADME, cell-based", "conditions": "a2780, 5 min"}, "A2780 [4]": {"system": "A2780", "test": "Inhibition of Pgp-mediated drug efflux in adriamycin-resistant human A2780 cells assessed as increase in adriamycin uptake at 5 uM after 1 hr by flow cytometry analysis", "assay_type": "cell-based"}, "A2780 [5]": {"system": "A2780", "test": "Inhibition of Pgp-mediated drug efflux in adriamycin-resistant human A2780 cells assessed as increase in adriamycin-induced cytotoxicity at 5 uM after 1 hr by CCK-8 assay", "assay_type": "cell-based"}, "A2780 [6]": {"system": "A2780", "test": "Inhibition of Pgp-mediated drug efflux in adriamycin-resistant human A2780 cells assessed as increase in adriamycin uptake at 5 uM after 8 hrs by flow cytometry analysis", "assay_type": "cell-based"}, "A2780 [7]": {"system": "A2780", "test": "Inhibition of Pgp-mediated drug efflux in adriamycin-resistant human A2780 cells assessed as increase in adriamycin-induced cytotoxicity at 5 uM after 8 hrs by CCK-8 assay", "assay_type": "cell-based"}, "A2780 [8]": {"system": "A2780", "test": "Inhibition of Pgp-mediated drug efflux in human A2780 cells overexpressing Pgp assessed as increase in intracellular adriamycin level at 5 uM after 40 mins by flow cytometry analysis", "assay_type": "cell-based"}, "[9]": {"test": "Cellular uptake in wild type human A2780 cell mitochondria at 5 uM after 40 mins by confocal microscopic analysis", "assay_type": "ADME", "conditions": "a2780, 40 min"}, "[10]": {"test": "Cellular uptake in adriamycin-resistant human A2780 cell plasma membrane at 5 uM after 40 mins by confocal microscopic analysis", "assay_type": "ADME, cell-based", "conditions": "a2780, 40 min"}, "[11]": {"test": "Cellular uptake in adriamycin-resistant human A2780 cell mitochondria at 5 uM after 40 mins by confocal microscopic analysis", "assay_type": "ADME", "conditions": "a2780, 40 min"}, "A2780 [12]": {"system": "A2780", "test": "Inhibition of Pgp in adriamycin-resistant human A2780 cells assessed as co-immunoprecipitation with biotin-Fxr3kCbl at 5 uM after 1 hr by immunoblotting analysis", "assay_type": "cell-based"}, "A2780 [13]": {"system": "A2780", "test": "Inhibition of Pgp-mediated drug efflux in adriamycin-resistant human A2780 cells assessed as localization of adriamycin from plasma membrane to intracellular sites at 5 uM after 5 mins by confocal microscopic analysis", "assay_type": "cell-based"}, "A2780 [14]": {"system": "A2780", "test": "Inhibition of Pgp-mediated drug efflux in adriamycin-resistant human A2780 cells assessed as increase of MitoTracker accumulation at 5 uM after 5 mins by confocal microscopic analysis", "assay_type": "cell-based"}, "A2780 [15]": {"system": "A2780", "test": "Inhibition of Pgp-mediated drug efflux in adriamycin-resistant human A2780 cells assessed as localization of MitoTracker from plasma membrane to intracellular sites at 5 uM after 5 mins by confocal microscopic analysis", "assay_type": "cell-based"}, "[16]": {"target": "ATP-dependent translocase ABCB1 (Homo sapiens, UniProt P08183)", "sequence (P08183 whole entry)": "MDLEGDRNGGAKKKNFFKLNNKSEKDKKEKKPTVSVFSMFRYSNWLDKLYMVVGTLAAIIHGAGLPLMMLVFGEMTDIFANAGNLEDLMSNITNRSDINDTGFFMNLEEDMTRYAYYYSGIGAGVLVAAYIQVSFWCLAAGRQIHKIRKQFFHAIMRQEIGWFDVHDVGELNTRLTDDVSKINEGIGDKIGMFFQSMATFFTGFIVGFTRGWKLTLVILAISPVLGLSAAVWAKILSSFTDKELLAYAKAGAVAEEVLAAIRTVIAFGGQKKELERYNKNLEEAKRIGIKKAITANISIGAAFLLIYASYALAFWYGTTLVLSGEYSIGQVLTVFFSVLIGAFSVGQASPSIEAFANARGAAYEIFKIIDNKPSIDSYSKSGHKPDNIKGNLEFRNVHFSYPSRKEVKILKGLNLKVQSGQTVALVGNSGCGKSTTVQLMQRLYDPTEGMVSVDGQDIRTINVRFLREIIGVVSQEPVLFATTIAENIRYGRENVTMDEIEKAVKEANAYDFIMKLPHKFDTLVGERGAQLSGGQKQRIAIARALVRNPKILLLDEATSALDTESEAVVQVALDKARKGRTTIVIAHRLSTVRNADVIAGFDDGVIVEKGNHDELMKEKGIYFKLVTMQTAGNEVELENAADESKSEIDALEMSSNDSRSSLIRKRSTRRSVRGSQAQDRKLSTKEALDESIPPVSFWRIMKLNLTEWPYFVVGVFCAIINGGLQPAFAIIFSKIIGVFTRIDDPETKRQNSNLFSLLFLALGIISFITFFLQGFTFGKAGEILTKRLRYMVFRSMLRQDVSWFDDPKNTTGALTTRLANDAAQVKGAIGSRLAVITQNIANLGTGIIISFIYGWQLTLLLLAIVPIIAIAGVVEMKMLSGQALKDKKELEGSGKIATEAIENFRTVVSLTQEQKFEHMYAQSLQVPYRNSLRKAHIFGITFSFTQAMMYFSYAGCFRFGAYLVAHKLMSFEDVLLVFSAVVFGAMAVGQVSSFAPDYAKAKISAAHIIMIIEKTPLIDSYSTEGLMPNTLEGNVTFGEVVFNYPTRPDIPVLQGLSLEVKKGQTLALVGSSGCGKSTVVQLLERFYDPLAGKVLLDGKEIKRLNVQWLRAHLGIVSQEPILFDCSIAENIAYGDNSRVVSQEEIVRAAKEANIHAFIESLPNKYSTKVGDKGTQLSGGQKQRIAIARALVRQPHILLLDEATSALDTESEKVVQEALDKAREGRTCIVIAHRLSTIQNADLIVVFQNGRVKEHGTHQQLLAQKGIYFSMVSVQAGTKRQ", "test": "Inhibition of p-glycoprotein in adriamycin-resistant human A2780 cell at 5 uM after 40 mins by confocal microscopic analysis", "conditions": "a2780, 40 min"}, "A2780 [17]": {"system": "A2780", "test": "Inhibition of Pgp-mediated drug efflux in adriamycin-resistant human A2780 cells assessed as increase in intracellular actinomycin level at 5 uM after 40 mins by flow cytometry analysis", "assay_type": "cell-based"}}, "note": "Activity calls are given as the source filed them. The rule behind the calls is not given here.", "data": [{"smiles": "CN1/C(=C\\c2cc[n+](CCCCCC(=O)N[C@@H](CCCNC(=N)N)C(=O)N[C@@H](CCCNC(=N)N)C(=O)N[C@@H](CCCNC(=N)N)C(=O)N[C@@H](CCCNC(=N)N)C(=O)N[C@@H](CCCNC(=N)N)C(=O)N[C@@H](CCCNC(=N)N)C(=O)N[C@H](CCCCNC(=O)CCCc3ccc(N(CCCl)CCCl)cc3)C(N)=O)c3ccccc23)Sc2ccccc21", "values": [{"measurement": "inhibition", "setting": "A2780 [1]", "value": "Active"}, {"measurement": "Drug uptake", "setting": "A2780 [2]", "value": "Not Active"}, {"measurement": "Drug uptake", "setting": "[3]", "value": "Not Active"}]}, {"smiles": "CN1/C(=C\\c2cc[n+](CCCCCC(=O)N[C@@H](Cc3ccccc3)C(=O)N[C@H](CCCNC(=N)N)C(=O)N[C@@H](Cc3ccccc3)C(=O)N[C@H](CCCNC(=N)N)C(=O)N[C@@H](Cc3ccccc3)C(=O)N[C@H](CCCNC(=N)N)C(=O)N[C@H](CCCCNC(=O)CCCc3ccc(N(CCCl)CCCl)cc3)C(N)=O)c3ccccc23)Sc2ccccc21", "values": [{"measurement": "inhibition", "setting": "A2780 [1]", "value": "Active"}, {"measurement": "inhibition", "setting": "A2780 [4]", "value": "Active"}, {"measurement": "inhibition", "setting": "A2780 [5]", "value": 50, "unit": "%"}, {"measurement": "inhibition", "setting": "A2780 [6]", "value": "inactive"}, {"measurement": "Drug uptake", "setting": "[3]", "value": "Active"}, {"measurement": "inhibition", "setting": "A2780 [7]", "value": 50, "unit": "%"}]}, {"smiles": "CN1/C(=C\\c2cc[n+](CCCCCC(=O)N[C@@H](Cc3ccncc3)C(=O)N[C@H](CCCNC(=N)N)C(=O)N[C@@H](Cc3ccncc3)C(=O)N[C@H](CCCNC(=N)N)C(=O)N[C@@H](Cc3ccncc3)C(=O)N[C@H](CCCNC(=N)N)C(=O)N[C@H](CCCCNC(=O)CCCc3ccc(N(CCCl)CCCl)cc3)C(N)=O)c3ccccc23)Sc2ccccc21", "values": [{"measurement": "inhibition", "setting": "A2780 [1]", "value": "Active"}, {"measurement": "inhibition", "setting": "A2780 [4]", "value": "Active"}, {"measurement": "inhibition", "setting": "A2780 [5]", "value": 50, "unit": "%"}, {"measurement": "inhibition", "setting": "A2780 [6]", "value": "inactive"}, {"measurement": "Drug uptake", "setting": "[3]", "value": "Active"}, {"measurement": "inhibition", "setting": "A2780 [7]", "value": 50, "unit": "%"}]}, {"smiles": "O=C(O)CCCc1ccc(N(CCCl)CCCl)cc1", "values": [{"measurement": "inhibition", "setting": "A2780 [8]", "value": "inactive"}]}, {"smiles": "N=C(N)NCCC[C@@H](NC(=O)[C@H](CC1CCCCC1)NC(=O)[C@@H](CCCNC(=N)N)NC(=O)[C@H](CC1CCCCC1)NC(=O)[C@@H](CCCNC(=N)N)NC(=O)[C@@H](N)CC1CCCCC1)C(=O)N[C@@H](CCCCN)C(N)=O", "values": [{"measurement": "inhibition", "setting": "A2780 [8]", "value": "inactive"}]}, {"smiles": "CN1/C(=C\\c2cc[n+](CCCCCC(=O)N[C@@H](CC3CCCCC3)C(=O)N[C@H](CCCNC(=N)N)C(=O)N[C@@H](CC3CCCCC3)C(=O)N[C@H](CCCNC(=N)N)C(=O)N[C@@H](CC3CCCCC3)C(=O)N[C@H](CCCNC(=N)N)C(=O)N[C@@H](CCCCNC(=O)CCCc3ccc(N(CCCl)CCCl)cc3)C(N)=O)c3ccccc23)Sc2ccccc21", "values": [{"measurement": "inhibition", "setting": "A2780 [8]", "value": "Active"}, {"measurement": "Drug uptake", "setting": "[9]", "value": "Active"}, {"measurement": "Drug uptake", "setting": "[10]", "value": "Active"}, {"measurement": "Drug uptake", "setting": "[11]", "value": "Not Active"}, {"measurement": "inhibition", "setting": "A2780 [12]", "value": "Active"}, {"measurement": "inhibition", "setting": "A2780 [13]", "value": "Active"}, {"measurement": "inhibition", "setting": "A2780 [14]", "value": "inactive"}, {"measurement": "inhibition", "setting": "A2780 [15]", "value": "Active"}, {"measurement": "inhibition (INH)", "setting": "[16]", "value": "Active"}]}, {"smiles": "CN1/C(=C\\c2cc[n+](CCCCCC(=O)N[C@@H](CC3CCCCC3)C(=O)N[C@H](CCCNC(=N)N)C(=O)N[C@@H](CC3CCCCC3)C(=O)N[C@H](CCCNC(=N)N)C(=O)N[C@@H](CC3CCCCC3)C(=O)N[C@H](CCCNC(=N)N)C(=O)N[C@H](CCCCNC(=O)CCCc3ccc(N(CCCl)CCCl)cc3)C(N)=O)c3ccccc23)Sc2ccccc21", "values": [{"measurement": "inhibition", "setting": "A2780 [17]", "value": "Active"}, {"measurement": "inhibition", "setting": "A2780 [1]", "value": "Active"}, {"measurement": "Drug uptake", "setting": "[3]", "value": "Active"}]}, {"smiles": "CN1/C(=C\\c2cc[n+](CCCCCC(=O)N[C@@H](Cc3ccc(O)cc3)C(=O)N[C@H](CCCNC(=N)N)C(=O)N[C@@H](Cc3ccc(O)cc3)C(=O)N[C@H](CCCNC(=N)N)C(=O)N[C@@H](Cc3ccc(O)cc3)C(=O)N[C@H](CCCNC(=N)N)C(=O)N[C@H](CCCCNC(=O)CCCc3ccc(N(CCCl)CCCl)cc3)C(N)=O)c3ccccc23)Sc2ccccc21", "values": [{"measurement": "inhibition", "setting": "A2780 [1]", "value": "Active"}, {"measurement": "Drug uptake", "setting": "A2780 [2]", "value": "Not Active"}, {"measurement": "Drug uptake", "setting": "[3]", "value": "Not Active"}]}, {"smiles": "CN1/C(=C\\c2cc[n+](CCCCCC(=O)N[C@@H](CC3CCCCC3)C(=O)N[C@H](CCCCN)C(=O)N[C@@H](CC3CCCCC3)C(=O)N[C@H](CCCCN)C(=O)N[C@@H](CC3CCCCC3)C(=O)N[C@H](CCCCN)C(=O)N[C@H](CCCCNC(=O)CCCc3ccc(N(CCCl)CCCl)cc3)C(N)=O)c3ccccc23)Sc2ccccc21", "values": [{"measurement": "inhibition", "setting": "A2780 [1]", "value": "Active"}, {"measurement": "inhibition", "setting": "A2780 [4]", "value": "Active"}, {"measurement": "inhibition", "setting": "A2780 [5]", "value": 50, "unit": "%"}, {"measurement": "inhibition", "setting": "A2780 [6]", "value": "inactive"}, {"measurement": "inhibition", "setting": "A2780 [7]", "value": 50, "unit": "%"}]}]}
